Measurements from ChEMBL document CHEMBL4334534, “Novel Methyl-aza-quinazolines as Inhibitors of the RAS-SOS Interaction” (ACS Med Chem Lett, 2020).
pIC50: −log10 of the molar value.

Legend:
[1] = target: Epidermal growth factor receptor (Homo sapiens, UniProt P00533); experiment: Inhibition of EGFR phosphorylation at Y 1173 residues in human HeLa cells preincubated for 30 mins followed by EGF-stimulation and measured after 2 mins by ELISA; format: cell-based
[2] = target: T1, SOS1-KRAS (Homo sapiens, UniProt P01116+Q07889, G12C); experiment: Inhibition of human N-terminal GST-tagged K-RasG12C mutant/human N-terminal His-tagged SOS1 preincubated for 2 mis followed by SOS1 addition and measured after 60 mins by HTRF assay
T1 sequence (P01116 whole entry G12C, stated change not applied): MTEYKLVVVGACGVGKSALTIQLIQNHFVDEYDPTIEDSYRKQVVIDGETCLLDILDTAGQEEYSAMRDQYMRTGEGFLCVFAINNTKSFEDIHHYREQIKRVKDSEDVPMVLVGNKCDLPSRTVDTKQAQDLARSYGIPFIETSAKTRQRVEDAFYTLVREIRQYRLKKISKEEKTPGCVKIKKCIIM
T1 sequence (Q07889 whole entry, stated change not applied): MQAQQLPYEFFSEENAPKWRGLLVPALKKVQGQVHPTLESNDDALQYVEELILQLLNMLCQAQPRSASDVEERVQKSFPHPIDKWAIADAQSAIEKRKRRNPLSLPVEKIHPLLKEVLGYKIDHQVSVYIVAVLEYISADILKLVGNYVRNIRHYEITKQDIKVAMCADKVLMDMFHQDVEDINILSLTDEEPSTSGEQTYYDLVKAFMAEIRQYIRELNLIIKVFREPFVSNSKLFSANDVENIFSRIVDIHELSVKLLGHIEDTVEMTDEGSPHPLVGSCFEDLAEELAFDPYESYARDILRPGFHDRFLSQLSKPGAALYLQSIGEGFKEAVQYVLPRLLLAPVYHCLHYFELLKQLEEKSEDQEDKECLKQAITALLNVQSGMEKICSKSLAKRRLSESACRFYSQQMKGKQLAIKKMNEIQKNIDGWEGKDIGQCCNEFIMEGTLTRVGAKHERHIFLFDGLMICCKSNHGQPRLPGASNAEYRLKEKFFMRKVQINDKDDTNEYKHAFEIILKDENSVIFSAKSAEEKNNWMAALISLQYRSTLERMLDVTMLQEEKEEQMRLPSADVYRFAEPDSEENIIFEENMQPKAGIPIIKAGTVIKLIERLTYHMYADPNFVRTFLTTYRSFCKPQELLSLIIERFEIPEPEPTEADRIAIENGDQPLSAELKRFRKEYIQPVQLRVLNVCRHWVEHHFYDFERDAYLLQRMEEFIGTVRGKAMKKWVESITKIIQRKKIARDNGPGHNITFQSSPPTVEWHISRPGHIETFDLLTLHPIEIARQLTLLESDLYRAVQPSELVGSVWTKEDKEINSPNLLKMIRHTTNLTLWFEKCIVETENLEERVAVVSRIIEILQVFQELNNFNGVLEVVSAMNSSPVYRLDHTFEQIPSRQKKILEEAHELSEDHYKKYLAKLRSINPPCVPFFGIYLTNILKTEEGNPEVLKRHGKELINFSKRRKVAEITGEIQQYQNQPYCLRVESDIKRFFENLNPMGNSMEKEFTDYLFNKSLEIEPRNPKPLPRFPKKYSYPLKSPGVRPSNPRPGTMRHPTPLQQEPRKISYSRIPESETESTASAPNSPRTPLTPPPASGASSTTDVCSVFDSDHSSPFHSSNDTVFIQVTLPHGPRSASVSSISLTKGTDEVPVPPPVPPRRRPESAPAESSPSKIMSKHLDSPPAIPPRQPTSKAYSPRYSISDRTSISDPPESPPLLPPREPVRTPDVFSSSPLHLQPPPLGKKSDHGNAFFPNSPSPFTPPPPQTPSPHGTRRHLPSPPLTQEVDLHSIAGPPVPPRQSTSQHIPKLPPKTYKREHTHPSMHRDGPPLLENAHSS

[3] = target: T1, SOS1-KRAS; experiment: Inhibition of human N-terminal GST-tagged K-RasG12C mutant/human N-terminal His-tagged SOS1 preincubated for 2 mis followed by SOS1 addition and measured after 20 mins in presence of GDP-Dy647P1 by HTRF assay
[4] = target: T1, SOS1-KRAS; experiment: Inhibition of human N-terminal GST-tagged K-RasG12C mutant/human N-terminal His-tagged SOS1 preincubated for 2 mis followed by SOS1 addition and measured after 10 mins in presence of EDA-GTP-Dy647P1 by HTRF assay

Epidermal growth factor receptor, sequence (P00533 whole entry): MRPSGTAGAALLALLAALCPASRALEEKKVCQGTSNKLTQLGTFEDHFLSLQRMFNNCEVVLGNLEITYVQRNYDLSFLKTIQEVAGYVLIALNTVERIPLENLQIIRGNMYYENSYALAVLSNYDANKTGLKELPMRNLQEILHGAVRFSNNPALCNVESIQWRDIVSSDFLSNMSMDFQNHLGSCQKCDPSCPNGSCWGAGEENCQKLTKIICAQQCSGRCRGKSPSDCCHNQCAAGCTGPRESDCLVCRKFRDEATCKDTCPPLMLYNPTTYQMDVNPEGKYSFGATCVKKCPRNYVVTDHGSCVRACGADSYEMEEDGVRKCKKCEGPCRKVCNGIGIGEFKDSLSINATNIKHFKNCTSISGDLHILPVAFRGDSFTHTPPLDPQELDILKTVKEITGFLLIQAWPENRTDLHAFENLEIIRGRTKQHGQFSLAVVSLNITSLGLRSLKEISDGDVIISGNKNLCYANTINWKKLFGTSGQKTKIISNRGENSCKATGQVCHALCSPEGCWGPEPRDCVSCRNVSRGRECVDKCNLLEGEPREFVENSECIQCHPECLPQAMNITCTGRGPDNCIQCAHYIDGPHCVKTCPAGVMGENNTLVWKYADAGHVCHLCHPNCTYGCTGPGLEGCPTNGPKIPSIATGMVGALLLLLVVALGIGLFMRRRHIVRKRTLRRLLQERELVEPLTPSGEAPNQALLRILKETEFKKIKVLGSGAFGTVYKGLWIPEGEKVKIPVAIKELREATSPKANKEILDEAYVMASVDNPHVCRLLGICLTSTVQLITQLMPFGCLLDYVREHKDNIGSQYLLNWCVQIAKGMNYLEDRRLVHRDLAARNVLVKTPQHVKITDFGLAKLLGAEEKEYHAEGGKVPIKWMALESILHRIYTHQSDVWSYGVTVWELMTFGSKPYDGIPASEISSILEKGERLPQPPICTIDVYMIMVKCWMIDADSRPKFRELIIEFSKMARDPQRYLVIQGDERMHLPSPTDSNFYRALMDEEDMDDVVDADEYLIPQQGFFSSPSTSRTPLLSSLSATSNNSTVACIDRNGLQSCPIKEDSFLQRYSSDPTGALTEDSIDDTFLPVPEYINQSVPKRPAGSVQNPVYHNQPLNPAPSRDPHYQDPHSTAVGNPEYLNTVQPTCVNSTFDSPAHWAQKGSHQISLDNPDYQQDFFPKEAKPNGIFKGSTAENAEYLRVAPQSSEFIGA

| Structure (SMILES) | pIC50 [1] | other results |
| --- | --- | --- |
| COCCOc1cc2c(N[C@H](C)c3ccc(F)cc3)nc(C)nc2cn1 | < 4.70 |  |
| CC(=O)N[C@H]1CCN(c2cc3c(NC(C)c4ccc(-c5ccccc5CN(C)C)s4)nc(C)nc3cn2)C1 (stereo in doubt; 61) | < 4.70 |  |
| Cc1nc(NC(C)c2ccc(-c3ccccc3CN(C)C)s2)c2cc(OCCN(C)C)ncc2n1 (centres undefined) | < 4.70 | pIC50 [2]: 7.52; pIC50 [3]: 7.57 |
| CCOc1cc2c(N[C@H](C)c3ccc(F)cc3)nc(C)nc2cn1 | < 4.70 |  |
| COc1cc2c(N[C@H](C)c3ccc(F)cc3)nc(C)nc2cn1 | < 4.70 |  |
| CC(=O)N[C@H]1CCN(c2cc3c(NC(C)c4ccc(-c5ccccc5CN(C)C)s4)nc(C)nc3cn2)C1 (stereo in doubt; 81) |  | pIC50 ([1]; hela): < 4.70 |
| CCCOc1cc2c(NC(C)c3ccc(-c4ccccc4CN(C)C)s3)nc(C)nc2cn1 (centres undefined) | < 4.70 | pIC50 [3]: 7.42 |
| CC(=O)N[C@@H]1CCN(c2cc3c(NC(C)c4ccc(-c5ccccc5CN(C)C)s4)nc(C)nc3cn2)C1 (stereo in doubt; 60) | < 4.70 |  |
| CC(=O)N[C@@H]1CCN(c2cc3c(NC(C)c4ccc(-c5ccccc5CN(C)C)s4)nc(C)nc3cn2)C1 (stereo in doubt; 79) |  | pIC50 ([1]; hela): < 4.70 |
| Cc1nc(NC(C)c2ccc(-c3ccccc3CN(C)C)s2)c2cc(N3CC(NC(=O)CN4CCOCC4)C3)ncc2n1 (centres undefined) | < 4.70 |  |
| Cc1nc(NC(C)c2ccc(-c3ccccc3CN(C)C)s2)c2cc(N3CCN(Cc4cccnc4)CC3)ncc2n1 (centres undefined) | < 4.70 | pIC50 [3]: 7.07 |
| CC(=O)N[C@@H]1CCN(c2cc3c(NC(C)c4ccc(-c5ccccc5CN(C)C)s4)nc(C)nc3cn2)C1 (stereo in doubt; 80) |  | pIC50 ([1]; hela): < 4.70 |
| CC(=O)NC1CCN(c2cc3c(NC(C)c4ccc(-c5ccccc5CN(C)C)s4)nc(C)nc3cn2)C1 (racemic) | < 4.70 |  |
| CCOc1cc2c(N[C@H](C)c3ccccc3)nc(C)nc2cn1 | < 4.70 |  |
| CC(=O)N[C@H]1CCN(c2cc3c(NC(C)c4ccc(-c5ccccc5CN(C)C)s4)nc(C)nc3cn2)C1 (stereo in doubt; 82) |  | pIC50 ([1]; hela): < 4.70 |
| Cc1nc(NC(C)c2ccc(-c3ccccc3CN(C)C)s2)c2cc(N3CCNC(=O)C3)ncc2n1 (centres undefined) | < 4.70 | pIC50 [3]: 7.32; pIC50 [4]: 7.27 |
| CSc1cc2c(N[C@H](C)c3ccc(F)cc3)nc(C)nc2cn1 | < 4.70 |  |
| CNCc1ccccc1-c1ccc(C(C)Nc2nc(C)nc3cnc(OCC4CCNC(=O)C4)cc23)s1 (centres undefined) | < 4.70 |  |
